Measurements taken from US20240358692A1, “TREATMENT OF SCLERODERMA” (Aisa Pharma, Inc., priority 2023, published 2024).

How the values were obtained:
[1] = system: participants with SSc-RP; assay type: in vivo; settings: tadalafil monotherapy group
Excerpt: Treatment-emergent AEs (TEAEs) are defined as AEs that occur or worsen after the dose of study drug. If the timing of the start of an AE could not be determined unambiguously from the start or end dates provided, it will be assumed to be a TEAE. An AE is considered related if the relationship to either of the study drug has been indicated as possibly or probably or definite related by the investigator. An AE leading to study withdrawal is defined as an AE that cause a subject early terminated from the study. AEs will be identified as emerging in the following parts: • TEAEs for Part A will be those that started during Part A (i.e., from the first dose in Part A to end of follow up of Part A) • TEAEs for Part B will be those that started during Part B (i.e., from the first dose in Part B to end of follow-up of Part B).
In this study, AEs and SAEs were reported for all participants from the time of randomization until the completion of the Follow-up/EOS visit. Adverse events that were ongoing at the EOS visit were marked as Not Recovered/Not resolved on the AE eCRF page (see Section 9.4.4). The Investigator did full AE review during in-clinic visit. All spontaneously volunteered and enquired for, as well as observed AEs, were recorded in the participant's medical records and the eCRF.
Severity of AEs were graded by the Investigator as one of: • Mild (Grade 1): A type of AE that is usually transient and may require only minimal treatment or therapeutic intervention.

[2] = system: participants with SSc-RP; assay: Average duration of weekly RP attacks (minutes), patient diary; assay type: in vivo, human; settings: Tadalafil 5 mg
Excerpt: The absolute change in average duration of weekly RP attacks from baseline to the end of each dosing period was and will be a secondary outcome variable. The sponsor-developed participant-informed diary was and will be used to record data. Average duration of weekly RP attacks is defined as the total duration of RP attacks divided by total number of RP attacks within the last 7 days of each dosing period. Total duration of RP attacks during the last 7 days of screening period divided by the total number of RP attacks will be used as baseline for the analysis of all periods. The variable will be calculated similar to frequency data as before.

[3] = Excluding Outliers, ITT Population - Part A, last 7 days of dosing period
[4] = by Baseline RCS, second RCS subgroup of table (not named), ITT Population - Part A
[5] = excluding outliers, 2nd baseline RCS subgroup, ITT Part A
[6] = last 7 days of dosing period, ITT Part A

## CN1CC(=O)N2[C@H](c3ccc4c(c3)OCO4)c3[nH]c4ccccc4c3C[C@@H]2C1=O [Tadalafil]
[1]
  Worst AE (group): Worst AE in tadalafil
[2]; [3]
  Average Duration of Weekly RP Attacks (All Attacks), Mean: 5.95 min
  Average Duration of Weekly RP Attacks (All Attacks), Median: 5.95 min
[2]; [4]
  Change from Baseline in average duration of weekly symptomatic RP attacks, Mean: 140.74 min
  Change from Baseline in average duration of weekly symptomatic RP attacks, Median: 140.74 min
  Percent Change from Baseline in average duration of weekly symptomatic RP attacks, Mean: 5.21%
  Percent Change from Baseline in average duration of weekly symptomatic RP attacks, Median: 5.21%
[2]; [5]
  Average duration of weekly RP attacks, Change from Baseline, Mean: -4.98 min
  Average duration of weekly RP attacks, Change from Baseline, Median: -4.98 min
  Average duration of weekly RP attacks, Percent Change from Baseline, Mean: −45.55%
  Average duration of weekly RP attacks, Percent Change from Baseline, Median: −45.55%
[2]; [6]
  Average Duration of weekly symptomatic RP attacks, Mean: 412.29 min
  Average Duration of weekly symptomatic RP attacks, Median: 412.29 min
